{"source": "patent US5013557A", "about": "“Taste masking compositions comprising spray dried microcapsules containing sucralfate and methods for preparing same” (Warner-Lambert Company, priority 1989, dated 1991)", "origin": "cited, not measured here", "key": {"EGF": {"test_system": "EGF", "conditions": "in vivo"}, "pepsin": {"test_system": "pepsin", "conditions": "gel-like mass at ulcer site"}, "[1]": {"conditions": "pH values below about 3.5"}, "peptic ulcers": {"test_system": "peptic ulcers", "conditions": "in vivo"}, "[2]": {"conditions": "sulfated disaccharide"}}, "data": [{"substance": "alpha-D-glucopyranoside, beta-D-fructofuranosyl-, octakis-(hydrogen sulfate), aluminum complex [sucralfate]", "values": [{"measurement": "Affinity for ulcerated mucosa versus non-ulcerated mucosa", "setting": "ulcerated mucosa", "value": "greater affinity for ulcerated mucosa than for non-ulcerated mucosa"}, {"measurement": "Morphological and functional changes in the mucosa", "setting": "mucosa", "value": "mucus release, changes in ion transport and increased release and synthesis of prostaglandins"}, {"measurement": "EGF remaining in the stomach", "setting": "EGF", "value": "enable EGF to remain in the stomach at a high concentration"}, {"measurement": "Effect of protein barrier on bile salts and pepsin", "setting": "pepsin", "value": "adsorbs bile salts and inhibits the potential ulcerogenic properties of pepsin"}, {"measurement": "Coagulation / gel formation", "setting": "[1]", "value": "coagulates to form a gel-like mass"}, {"measurement": "Healing of peptic ulcers", "setting": "peptic ulcers", "value": "accelerates the healing of peptic ulcers"}, {"measurement": "Absorption from the gastrointestinal tract", "setting": "[2]", "value": "not absorbed from the gastrointestinal tract"}, {"measurement": "Effect of barrier on back diffusion of gastric acid", "setting": "across the sucralfate protein barrier", "value": "blocks back diffusion of gastric acid"}, {"measurement": "Effect of barrier on diffusion of hydrogen ions", "setting": "protein barrier bound to ulcer site", "value": "blocks diffusion of hydrogen ions"}]}]}
